Data: patent US20240391928A1, “COMPOSITIONS FOR THE TREATMENT OF FOOD AND CHEMICAL ADDICTION AND METHODS OF MAKING AND USING SAME” (Duke University, priority 2021, published 2024)
Entries after “also recorded” stand apart in the source; their conditions may differ.

Tests used:
hGHSR1a^WT [1] = target: T1, hGHSR1a^WT (Homo sapiens, UniProt Q92847); test: SRF-RE transcriptional activity; format: cell-based; set-up: expressed in transfected cells; HEK293/S Gαq/11 KO and parental WT (iCa2+)
Method: The next morning, media was removed and cells were serum starved with 90 μL of opti-MEM (containing no serum) for 2 hours at 37° C. Cells were then stimulated with 10× test compounds (diluted in serum-free opti-MEM) for 5 hours at 37° C. in a humidified incubator. Cells were then lysed in 20 μL of 1× passive lysis buffer (Promega) for 10 minutes on a shaker (RT). To measure luminescence, 40 μL of luciferin (in HBSS supplemented with 20 mM HEPES) was injected into in each well and immediately read by a Mithras 940 plate reader for 10 seconds.

human GHSR1a^WT (Gαq) [2] = target: T2, human GHSR1a^WT (Gαq) (Homo sapiens, UniProt Q92847); test: TRUPATH (BRET) Gαq dissociation
T2 sequence (Q92847 whole entry): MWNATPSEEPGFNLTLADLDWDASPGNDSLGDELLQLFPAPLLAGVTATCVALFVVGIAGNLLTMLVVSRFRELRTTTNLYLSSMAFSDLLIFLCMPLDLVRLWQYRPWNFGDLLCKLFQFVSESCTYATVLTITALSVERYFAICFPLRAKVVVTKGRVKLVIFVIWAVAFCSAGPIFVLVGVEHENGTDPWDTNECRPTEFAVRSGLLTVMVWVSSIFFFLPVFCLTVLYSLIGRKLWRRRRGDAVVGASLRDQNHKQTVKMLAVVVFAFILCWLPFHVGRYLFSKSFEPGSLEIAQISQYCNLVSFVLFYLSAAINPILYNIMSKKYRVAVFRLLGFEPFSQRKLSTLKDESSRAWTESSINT
Method: (§2) BRET-based Gαq Dissociation & β-arr2 Recruitment Assays. TRUPATH Gα dissociation: Gαq/i1/i2/OA/12/13/sS^RLuc8 and Gγ8^GFP2 or Gγ9^GFP2 were transiently co-transfected with human 3×HA-GHSR1a^WT and untagged Gβ3 at a 1:1:1:1 ratio (100 μg each) into monolayers of HEK293/T cells along with 1.6 μg pcDNA3.1. The next morning, media (DMEM supplemented with 10% FBS and antibiotic/antimycotic) was exchanged and after 4-6 hours, cells were plated on white 96-well, clear-bottomed assay plates at a density of 40,000-50,000 cells/well in opti-MEM supplemented with 2% FBS and antibiotic/antimycotic. The next morning, opti-MEM was removed and cells were incubated with 80 μL HBSS supplemented with 20 mM HEPES (pH 7.4) for 4 hours. Cells were then treated with 10 μL of the luminescent substrate, coelenterazine 400a (5 μM final), for 5 minutes at room temperature prior to the addition of 10 μL of test compound. Five minutes after ligand application, luminescence was measured by a Mithras 940 plate reader over 30 minutes and the maximal response was utilized for generating all C/R curves.

hGHSR1a^A204E = hGHSR1a^A204E (Homo sapiens, UniProt Q92847, A204E); test: cell-based; conditions: read-out: Gαq dissociation maximal efficacy decrease at GHSR1a^A204E
hGHSR1a^A204E, sequence (Q92847 whole entry A204E): as the sequence (Q92847 whole entry) above, with A204E counted along it
Method: as §2

[3] = target: T3, hGHSR1a^WT-LgBiT / SmBiT-β-arr2 (Homo sapiens, UniProt Q92847); test: NanoBiT β-arr2 recruitment; format: cell-based
T3 construct: expressed in transfected cells; host or cells: HEK293/T, transient
T3 sequence (Q92847 whole entry): as the sequence (Q92847 whole entry) above
T3 sequence (P32121 whole entry partner): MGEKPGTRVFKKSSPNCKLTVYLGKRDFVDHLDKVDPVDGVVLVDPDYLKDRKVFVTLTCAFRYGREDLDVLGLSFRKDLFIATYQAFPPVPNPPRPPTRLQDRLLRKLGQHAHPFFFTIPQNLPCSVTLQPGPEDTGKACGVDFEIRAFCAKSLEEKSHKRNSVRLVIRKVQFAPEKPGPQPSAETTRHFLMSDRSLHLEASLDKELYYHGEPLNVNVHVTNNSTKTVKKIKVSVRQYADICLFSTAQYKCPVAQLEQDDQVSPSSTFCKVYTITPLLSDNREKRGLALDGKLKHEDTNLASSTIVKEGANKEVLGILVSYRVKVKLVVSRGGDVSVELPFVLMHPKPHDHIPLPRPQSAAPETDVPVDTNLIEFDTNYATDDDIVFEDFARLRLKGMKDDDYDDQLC
Method: β-arr2 recruitment: In agonist and antagonist assays of NanoBiT-based β-arr2 recruitment, hGHSR1a^WT-Lg^BiT and ^SmBiT-β^WT were transiently co-transfected at a 1:1 ratio (250 μg each) into monolayers of HEK293/T cells on 6-well plates along with 2 μg of pcDNA3.1. For assays employing the Ala204Glu variant, hGHSR1a^A204E-Lg^BiT was transfected at 2×hGHSR1a^WT-Lg^BiT, as performed for iCa^2+ assays with hGHSR1a^A204E described above. For GHSR1a-β-arr2 saturation assays, a fixed amount of hGHSR1a^WT-Lg^BiT cDNA (250 μg) was transfected with 0, 62.5 (1:0.25), 125 (1:0.5), 250 (1:1), 500 (1:2), or 1000 (1:4) μg of ^SmBiTβ-arr^WT. The morning after transfection, media was exchanged and after 4-6 hours, cells were then plated on white 96-well, clear-bottomed assay plates at a density of 45,000 cells/well in opti-MEM supplemented with 2% FBS and antibiotic/antimycotic. The following morning, opti-MEM was removed and cells were incubated with 70-80 μL HBSS supplemented with 20 mM HEPES (pH 7.4) for 4 hours. Cells were then treated with 10 μL of coelenterazine H (5 μM final) for 15-20 minutes at room temperature. Cells were then stimulated with 10 μL of test compounds and 2 minutes later, luminescence was measured over 5 minutes, which encompassed the peak β-arr2 recruitment signal.

human GHSR1a^WT (Gαq) [4] = target: T2, human GHSR1a^WT (Gαq); test: NanoBiT Gαq dissociation/activation; format: cell-based; set-up: HEK293/T (transient); HEK293S Gαq knockout (transient, NanoBiT Gαq)
hGHSR1a^WT-RLucII = target: T4, hGHSR1a^WT-RLucII (Homo sapiens, UniProt Q92847); test: Bystander BRET internalization (MyrPalm-Venus); format: cell-based; conditions: over 60 minutes
T4 construct: expressed in transfected cells; host or cells: HEK293/T, transient
T4 sequence (Q92847 whole entry): as the sequence (Q92847 whole entry) above
Method: Bystander BRET (bBRET). hGHSR1a^WT-RLucII and plasma membrane marker, MyrPalm^mVenus, or the early endosomal marker, 2×-FYVE^mVenus, was transiently co-transfected in HEK293/T cells at a ratio of 1:5 or 1:12.5, respectively. […] Plates were then read by a Mithras 940 plate reader every 5 minutes over 1 hour (MyrPalm^mVenus) or 2 hours (2×FYVE^mVenus) to determine a BRET ratios. To generate CR curves, the average net BRET over 60 minutes post-treatment was used.

[5] = target: T5, hGHSR1a^WT in Gαq/11 KO HEK293/S cells (Homo sapiens, UniProt Q92847); test: iCa2+ in Gαq/11 KO HEK293/S cells; format: cell-based; conditions: 10 μM ligand
T5 construct: expressed in transfected cells; SRF-RE reporter); HEK293/S Gαq/11 KO and parental WT (iCa2+)
T5 sequence (Q92847 whole entry): as above
Method: (§1) For experiments with WT and Gt KO HEK293/S cells, […] of hGHSR1a^WT, 10 μg of miAEQ, and 2.5 μg of pcDNA3.1 was transiently transfected into 10 cm dishes and incubated overnight. […] Twenty-four hours later, experiments proceeded in accordance with the procedures described above. To control for any possible kinetic differences in genetically modified cell lines or GHSR1a variants, the average ligand-induced response over 10 seconds was calculated, then normalized by dividing the L-miAeq by the L-miAeq plus the Lysis-miAeq and normalized to the appropriate control/reference condition.

hGHSR1a^WT [6] = target: T1, hGHSR1a^WT; test: Fixed-cell ELISA GHSR1a internalization; format: cell-based; set-up: expressed in transfected cells; HEK293/S Gαq/11 KO and parental WT (iCa2+); conditions: 45 minutes at 37° C.
Method: Chemiluminescent Fixed-Cell ELISA. […] The next morning, media was removed and cells were serum starved with 90 μL of opti-MEM (containing no serum) for 2-3 hours at 37° C. Cells were then stimulated with 10× test compounds (diluted in serum-free opti-MEM) for 45 minutes at 37° C. in a humidified incubator. After 45 minutes, cells were fixed with 4% paraformaldehyde for 15 minutes (RT). Fixed cells were then washed three times with PBS (pH 7.4, Gibco) and blocked with fish gelatin in TBS (Rockland, Gilbertsville, PA) for 45 minutes. Cells were then incubated with a rabbit, horseradish peroxidase (HRP)-conjugated anti-HA antibody (1:2, 500; Novus Biologicals, Littleton, CO) for 1 hour (RT). […] The average luminescence was used and the data for each ligand were normalized its corresponding vehicle treatment conditions.

C57BL/6J mice = test: Novelty-induced open-field locomotion in WT mice; format: in vivo, mouse; conditions: 2.5, 5, 10 mg/kg IP
Method: N=14-17 mice per treatment group.
Novelty-induced locomotor activity in DAT KO and inbred C57BL/6J mice. Open-field locomotor activity in mice was performed similar to that described in Barak et al., ACS Chem Biol. (2016)11(7):1880-90, the disclosure of which is incorporated herein in its entirety. In brief, Age- and sex-matched, littermate DAT KO and inbred C57BL/6J mice between 2-6 months of age were used to measure locomotor activity in an Omnitech Digiscan activity monitor (20×20 cm2; Accuscan Instruments, Columbus, OH). Locomotor activity was measured at 5 minutes intervals.

GHSR1a = GHSR1a (Homo sapiens, UniProt Q92847); test: PRESTO-Tango GPCRome β-arr2 recruitment screen; format: cell-based; set-up: expressed in transfected cells; conditions: N8279 1 μM
GHSR1a, sequence (Q92847 whole entry): as above
Method: Hits were defined as >3-fold activation above baseline. […] The assay quality was assessed by plotting duplicate, independent trial averages (derived from 4 independent wells) for each receptor as a point (X,Y). The corresponding plot of points for an ideal assay were fit by a regression line with the slope=1.

GHSR1a^N305A = target: T6, GHSR1a^N305A (Homo sapiens, UniProt Q92847, N305A); test: iCa2+ at N305A mutant; format: cell-based
T6 construct: expressed in transfected cells; host or cells: HEK293/T
T6 sequence (Q92847 whole entry N305A): as the sequence (Q92847 whole entry) above, with N305A counted along it
Method: as §1

[7] = 5 minute pretreatment, ghrelin 40 nM

T1 sequence (Q92847 whole entry): as the sequence (Q92847 whole entry) above

COc1ccc(C(=O)c2c(C(=O)NCCCN(C)C)oc3ccc(Cl)cc3c2=O)cc1OC [Example N8279, 6-Chloro-3-(3,4-dimethoxybenzoyl)-N-(3-(dimethylamino)propyl)-4-oxo-4H-chromene-2-carboxamide]
SRF-RE potency reduction relative to L585 (hGHSR1a^WT [1]): ~10 fold | SRF-RE potency reduction relative to ghrelin (hGHSR1a^WT [1]): ~15 fold | SRF-RE transcription efficacy in words (hGHSR1a^WT [1]): full agonist | BRET-Gαq potency, fold less potent than L585 (human GHSR1a^WT (Gαq) [2]): 1.7 fold | BRET-Gαq potency, fold less potent than ghrelin (human GHSR1a^WT (Gαq) [2]): 6.1 fold | Gαq activation efficacy in words (human GHSR1a^WT (Gαq) [2]; NanoBiT and BRET (TRUPATH) assays): full agonist | Emax (hGHSR1a^A204E): ~45% | NanoBiT β-arr2 recruitment, fold less potent than L585 [3]: ~43 fold | NanoBiT β-arr2 recruitment, fold less potent than ghrelin [3]: ~20 fold | inhibition of EC80 ghrelin-induced β-arr2 recruitment in words [3, 7]: significantly, but incompletely | inhibition of EC80 ghrelin-induced β-arr2 recruitment, fold less potent than JMV2959 [3, 7]: 1.7 fold | inhibition of EC80 ghrelin-induced β-arr2 recruitment, fold less potent than YIL781 [3, 7]: 2.9 fold | relative affinity (BiTd) of β-arr2 for GHSR1a, fold weaker than in ghrelin-treated cells ([3]; saturation, N8279 100-200 nM vs ghrelin 100 nM): 22.5 fold | Gαq activation Emax (NanoBiT) (human GHSR1a^WT (Gαq) [4]): 118.3±9.8 | internalization efficacy attenuation relative to ghrelin (bBRET MyrPalm) (hGHSR1a^WT-RLucII): ~20% | internalization potency reduction relative to ghrelin (bBRET MyrPalm) (hGHSR1a^WT-RLucII): 32 fold | agonist-induced iCa2+ in Gαq/11 KO cells [5]: abolished | internalization efficacy reduction relative to ghrelin (ELISA) (hGHSR1a^WT [6]): ~30% | internalization potency reduction relative to ghrelin (ELISA) (hGHSR1a^WT [6]): 24 fold | novelty-induced open-field locomotion in words (C57BL/6J mice): No statistically significant differences; also recorded: did not affect | activation above baseline at GHSR1a (GHSR1a): 6 fold | iCa2+ potency reduction at GHSR1a^N305A (GHSR1a^N305A): 6.5 fold
